Measurements from patent publication US20180186742A1, “PICOLINAMIDES AS FUNGICIDES” (Dow AgroSciences LLC, priority 2017, published 2018).
Where two headings read alike, the source gives them in different places.

Tests used:
Zymoseptoria tritici = experiment: Leaf blotch of wheat (SEPTTR), disease control on wheat seedlings; type: in vivo; settings: for pest or weed control at 100 ppm: high volume application at 100 ppm; for pest or weed control at 121.5 g/ha: low volume application at 121.5 g/H
Experimental: Technical grades of materials were dissolved in acetone, which were then mixed with nine volumes of water containing 110 ppm Triton X-100. The fungicide solutions were applied onto wheat seedlings using an automated booth sprayer to run-off. All sprayed plants were allowed to air dry prior to further handling. All fungicides were evaluated using the aforementioned method for their activity vs. all target diseases, unless stated otherwise. Wheat leaf blotch and brown rust activity were also evaluated using track spray applications, in which case the fungicides were formulated as EC formulations, containing 0.1% Trycol 5941 in the spray solutions. Wheat plants (variety Yuma) were grown from seed in a greenhouse in 50% mineral soil/50% soil-less Metro mix until the first leaf was fully emerged, with 7-10 seedlings per pot. These plants were inoculated with an aqueous spore suspension of Zymoseptoria tritici either prior to or after fungicide treatments. After inoculation the plants were kept in 100% relative humidity (one day in a dark dew chamber followed by two to three days in a lighted dew chamber at 20° C.) to permit spores to germinate and infect the leaf. The plants were then transferred to a greenhouse set at 20° C. for disease to develop. When disease symptoms were fully expressed on the 1st leaves of untreated plants, infection levels were assessed on a scale of 0 to 100 percent disease severity. Percent disease control was calculated using the ratio of disease severity on treated plants relative to untreated plants.

Puccinia triticina = experiment: Wheat brown rust (PUCCRT), disease control on wheat seedlings; type: in vivo; settings: for pest or weed control at 100 ppm: high volume application at 100 ppm; for pest or weed control at 121.5 g/ha: low volume application at 121.5 g/H
Experimental: Technical grades of materials were dissolved in acetone, which were then mixed with nine volumes of water containing 110 ppm Triton X-100. The fungicide solutions were applied onto wheat seedlings using an automated booth sprayer to run-off. All sprayed plants were allowed to air dry prior to further handling. All fungicides were evaluated using the aforementioned method for their activity vs. all target diseases, unless stated otherwise. Wheat leaf blotch and brown rust activity were also evaluated using track spray applications, in which case the fungicides were formulated as EC formulations, containing 0.1% Trycol 5941 in the spray solutions. Wheat plants (variety Yuma) were grown from seed in a greenhouse in 50% mineral soil/50% soil-less Metro mix until the first leaf was fully emerged, with 7-10 seedlings per pot. These plants were inoculated with an aqueous spore suspension of Puccinia triticina either prior to or after fungicide treatments. After inoculation the plants were kept in a dark dew room at 22° C. with 100% relative humidity overnight to permit spores to germinate and infect the leaf. The plants were then transferred to a greenhouse set at 24° C. for disease to develop. Fungicide formulation, application and disease assessment followed the procedures as described in the Example A.

[1] = 24 h, 1 Day Protectant, read-out: SEPTTR disease control, 1DP, HV activity
[2] = 72 h, 3 Day Curative, read-out: SEPTTR disease control, 3DC, HV activity
[3] = 24 h, 1 Day Protectant, read-out: PUCCRT disease control, 1DP, HV activity
[4] = 72 h, 3 Day Curative, read-out: PUCCRT disease control, 3DC, HV activity
[5] = 24 h, 1 Day Protectant, read-out: SEPTTR disease control, 1DP, LV activity
[6] = 72 h, 3 Day Curative, read-out: SEPTTR disease control, 3DC, LV activity
[7] = 24 h, 1 Day Protectant, read-out: PUCCRT disease control, 1DP, LV activity
[8] = 72 h, 3 Day Curative, read-out: PUCCRT disease control, 3DC, LV activity
[9] = 24 h, 1 Day Protectant, wheat leaf blotch, read-out: SEPTTR 1DP disease control, LV activity
[10] = 72 h, 3 Day Curative, wheat leaf blotch, read-out: SEPTTR 3DC disease control, LV activity
[11] = 24 h, 1 Day Protectant, wheat brown rust, read-out: PUCCRT 1DP disease control, LV activity
[12] = 72 h, 3 Day Curative, wheat brown rust, read-out: PUCCRT 3DC disease control, LV activity

| Compound | pest or weed control at 100 ppm (Zymoseptoria tritici; [1]) [%] | pest or weed control at 100 ppm (Zymoseptoria tritici; [2]) [%] | pest or weed control at 100 ppm (Puccinia triticina; [3]) [%] | pest or weed control at 100 ppm (Puccinia triticina; [4]) [%] | pest or weed control at 121.5 g/ha (Zymoseptoria tritici; [5]) [%] | pest or weed control at 121.5 g/ha (Puccinia triticina; [7]) [%] | pest or weed control at 121.5 g/ha (Puccinia triticina; [8]) [%] | also measured |
| --- | --- | --- | --- | --- | --- | --- | --- | --- |
| COc1ccnc(C(=O)N[C@@H](C)C(=O)O[C@@H](C)[C@H](c2c(F)cc(F)cc2F)C(C)C)c1O [Compound 341] | > 80 | > 80 | > 80 | > 80 | – | – | – | – |
| COc1ccnc(C(=S)N[C@@H](C)C(=O)OC(C)[C@H](c2ccccc2)C2CCCC2)c1OC(C)=O (stereo partly drawn) [Compound 176] | – | – | – | – | > 80 | > 80 | < 80 | pest or weed control at 121.5 g/ha (Zymoseptoria tritici; [6]): > 80% |
| COc1ccc([C@H](C(C)C)[C@H](C)OC(=O)[C@H](C)NC(=O)c2nccc(OC)c2OC(C)=O)c(F)c1 [Compound 251] | – | – | – | – | < 80 | > 80 | > 80 | – |
| CCC(C)[C@H](c1ccc(F)cc1OC)[C@H](C)OC(=O)[C@H](C)NC(=O)c1nccc(OC)c1O (stereo partly drawn) [Compound 141] | < 0 | > 80 | < 80 | > 80 | – | – | – | – |
| COc1ccnc(C(=O)N[C@@H](C)C(=O)O[C@@H](C)[C@H](c2ccc(C)cc2)C(C)C)c1OCOC(C)=O [Compound 255] | – | – | – | – | < 80 | > 80 | > 80 | – |
| COc1ccc([C@H](C(C)C)[C@H](C)OC(=O)[C@H](C)NC(=O)c2nccc(OC)c2OCOC(C)=O)c(OC)c1 [Compound 264] | – | – | – | – | < 80 | > 80 | > 80 | pest or weed control at 121.5 g/ha (Zymoseptoria tritici; [6]): < 80% |
| COc1ccnc(C(=O)N[C@@H](C)C(=O)O[C@@H](C)[C@H](c2ccc(C)cc2)C2CC2)c1OC(C)=O [Compound 166] | – | – | – | – | < 80 | > 80 | > 80 | pest or weed control at 121.5 g/ha (Zymoseptoria tritici; [6]): > 80% |
| CCC(C)[C@@H](c1ccccc1C)[C@H](C)OC(=O)[C@H](C)NC(=O)c1nccc(OC)c1OC(C)=O (stereo partly drawn) [Compound 384] | – | – | – | – | – | – | – | pest or weed control at 121.5 g/ha (Zymoseptoria tritici; [9]): > 80%; pest or weed control at 121.5 g/ha (Zymoseptoria tritici; [10]): > 80%; pest or weed control at 121.5 g/ha (Puccinia triticina; [11]): > 80%; pest or weed control at 121.5 g/ha (Puccinia triticina; [12]): > 80% |
| COc1ccnc(C(=O)N[C@@H](C)C(=O)O[C@@H](C)[C@H](c2ccc(F)cc2)C(C)C)c1O [Compound 135] | < 80 | > 80 | < 80 | > 80 | – | – | – | – |
| COc1ccnc(C(=O)N[C@@H](C)C(=O)O[C@@H](C)[C@@H](c2ccc(C)cc2C)C2CCCCC2)c1O [Compound 133] | > 80 | < 80 | > 80 | < 80 | – | – | – | – |
| COc1cc(C)ccc1[C@H](C(C)C)[C@H](C)OC(=O)[C@H](C)NC(=O)c1nccc(OC)c1OC(C)=O [Compound 253] | – | – | – | – | < 80 | > 80 | > 80 | – |
| CCC(C)[C@@H](c1ccc(F)cc1C)[C@H](C)OC(=O)[C@H](C)NC(=O)c1nccc(OC)c1O (stereo partly drawn) [Compound 126] | > 80 | > 80 | > 80 | < 80 | – | – | – | – |
| CC[C@H](C)[C@H](NC(=O)c1nccc(OC)c1O)C(=O)O[C@@H](C)[C@H](c1ccc(F)cc1C)C(C)C [Compound 319] | < 80 | < 80 | < 80 | < 80 | – | – | – | – |
| COc1ccnc(C(=O)N[C@@H](C)C(=O)O[C@H](C)[C@H](c2ccc(F)cc2C)C2CCCC2)c1O [Compound 128] | < 0 | < 80 | < 80 | < 0 | – | – | – | – |
| COc1ccnc(C(=O)N[C@@H](C)C(=O)O[C@@H](C)[C@H](c2ccc(F)cc2F)C(C)C)c1O [Compound 328] | > 80 | > 80 | > 80 | > 80 | – | – | – | – |
| COc1ccnc(C(=O)N[C@@H](C)C(=O)OC(C)[C@H](c2ccccc2)C2CCCC2)c1OCOC(C)=O (stereo partly drawn) [Compound 175] | – | – | – | – | > 80 | > 80 | > 80 | pest or weed control at 121.5 g/ha (Zymoseptoria tritici; [6]): > 80% |
| COc1ccccc1[C@H](C(C)C)[C@H](C)OC(=O)[C@H](C)NC(=O)c1nccc(OC)c1OCOC(C)=O [Compound 263] | – | – | – | – | < 80 | > 80 | > 80 | pest or weed control at 121.5 g/ha (Zymoseptoria tritici; [6]): > 80% |
| COc1ccc([C@H](C(C)C)[C@H](C)OC(=O)[C@H](C)NC(=O)c2nccc(OC)c2OC(C)=O)c(OC)c1 [Compound 262] | – | – | – | – | < 80 | > 80 | < 80 | pest or weed control at 121.5 g/ha (Zymoseptoria tritici; [6]): < 80% |
| COc1ccc([C@H](C(C)C)[C@H](C)OC(=O)[C@H](C)NC(=O)c2nccc(OC)c2OCOC(C)=O)cc1F [Compound 258] | – | – | – | – | < 80 | > 80 | < 80 | – |
| COc1ccnc(C(=O)N[C@@H](C)C(=O)O[C@@H](C)[C@H](c2ccc(C)cc2C)C(C)C)c1O [Compound 325] | > 80 | < 80 | > 80 | > 80 | – | – | – | – |
| COc1ccnc(C(=O)N[C@@H](C)C(=O)O[C@@H](C)[C@H](c2ccc(F)cc2C)C2CCCC2)c1O [Compound 122] | > 80 | < 80 | > 80 | > 80 | – | – | – | – |
| CCC(CC)[C@@H](c1ccccc1C)[C@H](C)OC(=O)[C@H](C)NC(=O)c1nccc(OC)c1OC(=O)C(C)C [Compound 387] | – | – | – | – | – | – | – | pest or weed control at 121.5 g/ha (Zymoseptoria tritici; [9]): < 80%; pest or weed control at 121.5 g/ha (Zymoseptoria tritici; [10]): > 80%; pest or weed control at 121.5 g/ha (Puccinia triticina; [11]): > 80%; pest or weed control at 121.5 g/ha (Puccinia triticina; [12]): < 80% |
| COc1ccnc(C(=S)N[C@@H](C)C(=O)O[C@@H](C)[C@H](c2ccc(F)cc2C)C(C)C)c1O [Compound 136] | > 80 | > 80 | > 80 | > 80 | – | – | – | – |
| COc1ccnc(C(=O)N[C@@H](C)C(=O)O[C@@H](C)[C@@H](c2ccccc2)C(C)C)c1OC(C)=O [Compound 160] | – | – | – | – | < 80 | > 80 | < 80 | pest or weed control at 121.5 g/ha (Zymoseptoria tritici; [6]): > 80% |
| COc1ccnc(C(=O)NCC(=O)O[C@@H](C)[C@H](c2ccc(F)cc2C)C(C)C)c1O [Compound 317] | < 80 | < 80 | > 80 | > 80 | – | – | – | – |
| CCC(C)[C@H](c1ccc(C)cc1C)[C@H](C)OC(=O)[C@H](C)NC(=O)c1nccc(OC)c1O (stereo partly drawn) [Compound 134] | < 80 | < 80 | < 80 | < 80 | – | – | – | – |
| COc1ccnc(C(=O)N[C@@H](C)C(=O)O[C@@H](C)[C@@H](c2ccc(F)cc2F)C(C)C)c1O [Compound 331] | < 80 | < 80 | < 80 | < 80 | – | – | – | – |
| COc1ccccc1[C@H](C(C)C)[C@H](C)OC(=O)[C@H](C)NC(=O)c1nccc(OC)c1OC(C)=O [Compound 261] | – | – | – | – | < 80 | > 80 | < 80 | pest or weed control at 121.5 g/ha (Zymoseptoria tritici; [6]): < 80% |
